Results on 15 compounds are retold here after patent publication US7648999B2, “Activator for peroxisome proliferator-activated receptor δ” (Nippon Chemiphar Co., Ltd., priority 2007, dated 2010).

Holding throughout (assay type): cell-based
Assay [1] has as its target T1, PPARδ (GAL4-hPPARδ LBD) (Homo sapiens, UniProt Q03181).
T1 construct: A chimeric receptor expression plasmid (GAL4-hPPARδ LBD), a reporter plasmid (UASx4-TK-LUC); expressed in transfected cells; host or cells: CV-1 cells
T1 sequence (Q03181 211-439 limits assumed): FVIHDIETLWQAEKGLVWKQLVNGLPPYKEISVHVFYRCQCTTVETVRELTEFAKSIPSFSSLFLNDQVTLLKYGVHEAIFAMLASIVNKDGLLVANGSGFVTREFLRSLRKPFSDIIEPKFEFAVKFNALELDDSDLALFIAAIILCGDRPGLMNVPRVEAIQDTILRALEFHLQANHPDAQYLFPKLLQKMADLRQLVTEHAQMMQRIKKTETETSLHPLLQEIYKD
Nature of the assay: PPARδ transactivation activity (GAL4 chimera luciferase reporter in CV-1 cells). As for the experimental part:
A chimeric receptor expression plasmid (GAL4-hPPARδ LBD), a reporter plasmid (UASx4-TK-LUC) and β-galactosidase (β-GAL) are transfected into CV-1 cells by utilizing a lipofection reagent DMRIE-C (Life Technologies).
(1) Measurement of PPARα, γ, δ Transactivation Activity
CV-1 cells were obtained from Tohoku University Aging Medical Laboratory, Medical Cell Collection Center. All test compounds were dissolved in dimethylsulfoxide (DMSO). Final concentration of DMSO was 0.1%.
CV-1 cells were seeded in 24 well culture plates at 2×10^5 cells per well, and cultured for 24 hours OPTI-MEM I Reduced Serum Medium (Life Technologies, 500 μL/well) containing 4%-fetal bovine serum (FBS). After washing with OPTI-MEM, transfection mixture (250 μL/well) containing 0.03 μg of GAL4-hPPARδ LBD, 0.25 μg of UASx-4-TK-LUC, 0.35 μg of βGAL, and 2 μL of lipofection reagent, DMRIE-C (Life Technologies) were added. The cells were incubated for 5 hours at 37° C.
The cells were washed and incubated for 40 hours in the presence of the test compound (final concentration was 10^−7M or 10^−6M)
The culture medium was removed and the cells were washed with PBS twice. A solubilizing buffer (100 μL/well) containing 25 mM Tris-PO4 (pH 7.8), 15% v/v glycerol, 2% CHAPS, 1% Lecithin, 1% BSA, 4 mM EGTA (pH 8.0), 8 mM MgCl2, 1 mM DTT was added. After the incubation for 10 minutes at room temperature, a portion (20 μL) of the solution was transferred into a 96-well plate. Subsequently, 100 μL of luciferase substrate solution (Piccagene: available from Nippon Gene Co., Ltd.) was added, and a luminous intensity per one second (luciferase activity) was measured using a microluminoreader (Type MLR-100, Corona Electrics Co., Ltd.). Each luciferase activity was corrected by the transfection efficiency which was calculated from β-galactosidase activity. The assay method of β-galactosidase activity was as follows: A portion (50 μL) of the solubilized sample was transferred into another 96-well plate; 100 μL of ONPG (2-nitrophenyl-β-galactopyranoside) solution was added and incubated for 5 minutes at room temperature. 50 μL of a reaction stopping solution (1M sodium carbonate solution) was added. Then the absorbance at 414 nm was measured.

The target of assay [2] is T2, PPARα (GAL4-hPPARα LBD) (Homo sapiens, UniProt Q07869).
T2 construct: Receptor expression plasmid (GAL4-hPPARα, LBD GAL4-hPPARγ LBD, GAL4-hPPARδ LBD); expressed in transfected cells; host or cells: CV-1 cells
T2 sequence (Q07869 239-466 limits assumed): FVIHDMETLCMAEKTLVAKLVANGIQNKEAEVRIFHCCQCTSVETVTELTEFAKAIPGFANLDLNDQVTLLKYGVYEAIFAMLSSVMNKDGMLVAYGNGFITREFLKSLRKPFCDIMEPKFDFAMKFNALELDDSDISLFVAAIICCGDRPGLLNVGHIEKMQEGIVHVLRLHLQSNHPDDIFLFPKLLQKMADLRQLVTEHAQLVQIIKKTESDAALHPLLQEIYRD
Nature of the assay: PPARα transactivation activity (GAL4 chimera luciferase reporter in CV-1 cells).

The target in assay [3] is T3, PPARγ (GAL4-hPPARγ LBD) (Homo sapiens, UniProt P37231).
T3 construct: Receptor expression plasmid (GAL4-hPPARα, LBD GAL4-hPPARγ LBD, GAL4-hPPARδ LBD); expressed in transfected cells; host or cells: CV-1 cells
T3 sequence (P37231 238-503 limits assumed): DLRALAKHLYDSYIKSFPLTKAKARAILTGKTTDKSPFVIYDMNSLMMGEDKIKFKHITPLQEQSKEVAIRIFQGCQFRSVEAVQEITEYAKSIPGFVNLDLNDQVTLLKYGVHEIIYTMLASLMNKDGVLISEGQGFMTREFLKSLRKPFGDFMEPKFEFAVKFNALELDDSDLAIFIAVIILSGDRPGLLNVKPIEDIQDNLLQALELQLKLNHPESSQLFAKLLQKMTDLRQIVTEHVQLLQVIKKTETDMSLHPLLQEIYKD
Nature of the assay: PPARγ transactivation activity (GAL4 chimera luciferase reporter in CV-1 cells). (In general: A reporter such as luciferase makes a cellular process visible.)

[4] abbreviates: compound at 10^−7 M (value without parentheses).
Where [5] appears, read: compound at 10^−7 M, CV-1 cells, 40 hours, positive control 10^−4 M WY-14643 = 100%.
Setting [6] is: compound at 10^−7 M, CV-1 cells, 40 hours, positive control 10^−5 M Rosiglitazone = 100%.
Setting [7] is: compound at 10^−7 M, CV-1 cells, 40 hours, positive control 10^−4 M L-165041 = 100%.
Setting [8] is: compound at 10^−6 M (value in parentheses).

Where two headings read alike, the source gives them in different places.

As to “[4-[3-[4-Isopropyl-2-(4-methoxyphenyl)-5-thiazolyl]propionyl]-2-methylphenoxy]propionic acid [Example 26]”, in assay [1] (setting [4]), the “Relative activity for PPAR transactivation, δ” value (shortened to “Relative activity … δ”) is on record as 18 % of control.
For the compound `Cc1cc(C(=O)CCc2sc(-c3ccc(C(F)(F)F)cc3)nc2C(C)C)ccc1OCC(=O)O` [Example 3, [4-[3-[2-(4-Trifluoromethyl)phenyl-4-isopropyl-5-thiazolyl]propionyl]-2-methylphenoxy]acetic acid], the “Relative activity for PPAR transactivation, α” value (from here on “Relative activity … α”) in assay [2] (setting [5]) is recorded as 0 % of control. For the same compound, in assay [3] (setting [6]), the “Relative activity for PPAR transactivation, γ” value (shortened to “Relative activity … γ”) is 5 % of control. Also, in assay [1] (setting [7]), the “Relative activity … δ” value is reported as 101 % of control.
Consider `Cc1cc(OCC(=O)O)ccc1C(=O)CCc1sc(-c2ccc(C(F)(F)F)cc2)nc1C(C)C` [Example 14, [4-[3-[4-Isopropyl-2-(4-trifluoromethyl)phenyl-5-thiazolyl]propionyl]-3-methylphenoxy]acetic acid], for which, in assay [2] (setting [4]), the “Relative activity … α” value is on record as 0 % of control. In addition, the “Relative activity … γ” value in assay [3] (setting [4]) is given as 0 % of control. Further, in assay [1] (setting [4]), the “Relative activity … δ” value is 42 % of control.
Consider `Cc1ccc(C(=O)CCc2sc(-c3ccc(C(F)(F)F)cc3)nc2C(C)C)cc1OCC(=O)O` [Example 41, [5-[3-[4-Isopropyl-2-(4-trifluoromethyl)phenyl-5-thiazolyl]propionyl]-2-methylphenoxy]acetic acid], for which the “Relative activity … α” value in assay [2] (setting [8]) was “(5) % of control”. Besides, the “Relative activity … γ” value in assay [3] (setting [8]) is “(60) % of control”.
For `Cc1ccc(C(=O)CCc2sc(-c3ccc(C(F)(F)F)cc3)nc2C(C)C)cc1OC(C)(C)C(=O)O` [Example 42, 2-[5-[3-[4-Isopropyl-2-(4-trifluoromethyl)phenyl-5-thiazolyl]propionyl]-2-methylphenoxy]-2-methylpropionic acid], in that order: “(68) % of control” and “(55) % of control”.
For the compound `CCCc1cc(C(=O)CCc2sc(-c3ccc(C(F)(F)F)cc3)nc2C(C)C)ccc1OCC(=O)O` [Example 18, [4-[3-[4-Isopropyl-2-(4-trifluoromethyl)phenyl-5-thiazolyl]propionyl]-2-propylphenoxy]acetic acid], the “Relative activity … α” value in assay [2] (setting [4]) was 0 % of control. In assay [3] (setting [4]), the “Relative activity … γ” value is 1 % of control. Also, the “Relative activity … δ” value in assay [1] (setting [4]) is 70 % of control.
For “4-[3-[4-Methyl-2-(4-trifluoromethyl)phenyl-5-thiazolyl]propionyl]-2-methylphenoxy]acetic acid [Example 44]”, in assay [2], the “Relative activity … α” value is “(0) % of control”. Also, the “Relative activity … γ” value in assay [3] is on record as “(0) % of control”. Further, in assay [1], the “PPARδ transactivation activity / activating effect (in words)” value was “inferior in the PPARδ transactivation activity” and the “Relative activity … δ” value is given as “(38) % of control”.
Regarding `Cc1cc(C(=O)CCc2sc(-c3ccc(C(F)(F)F)cc3)nc2C(C)C)ccc1OC(C)C(=O)O` (centres unmarked) [Example 43, 2-[4-[3-[4-Isopropyl-2-(4-trifluoromethyl)phenyl-5-thiazolyl]propionyl]-2-methylphenoxy]propionic acid], the “Relative activity … α” value in assay [2] (setting [4]) was 3 % of control. In addition, in assay [3] (setting [4]), the “Relative activity … γ” value is 5 % of control. In assay [1] (setting [4]), the “Relative activity … δ” value is listed as 42 % of control.
`Cc1cc(C(=O)CCc2nc(-c3ccc(C(F)(F)F)cc3)sc2C(C)C)ccc1OCC(=O)O` [Example 37, [4-[3-[5-Isopropyl-2-(4-trifluoromethyl)phenyl-4-thiazolyl]propionyl]-2-methylphenoxy]acetic acid]: the “Relative activity … δ” value in assay [1] was “(71) % of control”.
On to `Cc1cc(C(=O)C=Cc2sc(-c3ccc(C(F)(F)F)cc3)nc2C(C)C)ccc1OC(C)(C)C(=O)O` [Example 25, 2-[4-[3-[4-Isopropyl-2-(4-trifluoromethyl)phenyl-5-thiazolyl]propenoyl]-2-methylphenoxy]-2-methylpropionic acid], for which the “Relative activity … δ” value in assay [1] (setting [4]) was 61 % of control.
Take `CCCCCCc1nc(-c2ccc(C(F)(F)F)cc2)sc1CCC(=O)c1ccc(C)c(OC(C)(C)C(=O)O)c1` [Example 46, 2-[5-[3-[4-Hexyl-2-(4-trifluoromethyl)phenyl-5-thiazolyl]propionyl]-2-methylphenoxy]-2-methylpropionic acid]: in assay [2] (setting [8]), the “Relative activity … α” value is on record as “(78) % of control”. In addition, in assay [3] (setting [8]), the “Relative activity … γ” value is reported as “(69) % of control”. The “Relative activity … δ” value in assay [1] (setting [8]) was “(46) % of control”.
`CCCCCCc1nc(-c2ccc(C(F)(F)F)cc2)sc1CCC(=O)c1ccc(OC(C)(C)C(=O)O)c(C)c1` [Example 12, 2-[4-[3-[4-Hexyl-2-(4-trifluoromethyl)phenyl-5-thiazolyl]propionyl]-2-methylphenoxy]-2-methylpropionic acid]: the “Relative activity … α” value in assay [2] (setting [4]) is recorded as 75 % of control. The “Relative activity … γ” value in assay [3] (setting [4]) was 31 % of control. For the same compound, in assay [1] (setting [4]), the “Relative activity … δ” value is on record as 45 % of control.
For `Cc1cc(C(=O)C=Cc2sc(-c3ccc(C(F)(F)F)cc3)nc2C(C)C)ccc1OCC(=O)O` [Example 24, [4-[3-[4-Isopropyl-2-(4-trifluoromethyl)phenyl-5-thiazolyl]propenoyl]-2-methylphenoxy]acetic acid], in that order: 0 % of control, 0 % of control and 75 % of control.
As to `Cc1cc(OC(C)(C)C(=O)O)ccc1C(=O)CCc1sc(-c2ccc(C(F)(F)F)cc2)nc1C(C)C` [Example 16, [4-[3-[4-Isopropyl-2-(4-trifluoromethyl)phenyl-5-thiazolyl]propionyl]-3-methylphenoxy]-2-methylpropionic acid], the “Relative activity … α” value in assay [2] (setting [4]) is given as 62 % of control. In addition, the “Relative activity … γ” value in assay [3] (setting [4]) was 3 % of control. Also, in assay [1] (setting [4]), the “Relative activity … δ” value is 57 % of control.
On to `Cc1cc(C(=O)CCc2nc(-c3ccc(Cl)cc3O)oc2C(C)C)ccc1OCC(=O)O` [Example 6, [4-[3-[2-(2-Hydroxy-4-chlorophenyl)-5-isopropyl-4-oxazolyl]propionyl]-2-methylphenoxy]acetic acid], for which, in assay [2] (setting [5]), the “Relative activity … α” value is 0 % of control. The “Relative activity … γ” value in assay [3] (setting [6]) is 6 % of control. Also, in assay [1] (setting [7]), the “Relative activity … δ” value was 73 % of control.
